According to patent publication US10645928B2, “Pesticidally active polycyclic derivatives with sulfur containing substituents” (Syngenta Participations AG, priority 2014, dated 2020):

Key:
Type in all cases: in vivo
[1] = system: Diabrotica balteata (Corn Root Worm); assay: Example B2: Diabrotica balteata, sprayed maize sprouts, mortality and growth inhibition; settings: 96 h, application rate of 200 ppm, L2 larvae, 4 days after infestation, read-out: effect in at least one of the two categories (mortality or growth inhibition)
Experimental: Maize sprouts placed onto an agar layer in 24-well microtiter plates were treated with aqueous test solutions prepared from 10,000 ppm DMSO stock solutions by spraying. After drying, the plates were infested with L2 larvae (6 to 10 per well). The samples were assessed for mortality and growth inhibition in comparison to untreated samples 4 days after infestation.

[2] = system: Diabrotica balteata (Corn Root Worm); assay: Example B3: Diabrotica balteata, sprayed maize sprouts, mortality; settings: 96 h, application rate of 200 ppm, L2 larvae, 4 days after infestation
Experimental: Maize sprouts placed onto an agar layer in 24-well microtiter plates were treated with aqueous test solutions prepared from 10,000 ppm DMSO stock solutions by spraying. After drying, the plates were infested with L2 larvae (6 to 10 per well). The samples were assessed for mortality 4 days after infestation.

[3] = system: Euschistus heros (Neotropical Brown Stink Bug); assay: Example B4: Euschistus heros, sprayed soybean leaves, growth inhibition; settings: 120 h, application rate of 200 ppm, N2 nymphs, 5 days after infestation
Experimental: Soybean leaves on agar in 24-well microtiter plates were sprayed with aqueous test solutions prepared from 10,000 ppm DMSO stock solutions. After drying the leaves were infested with N2 nymphs. The samples were assessed for growth inhibition in comparison to untreated samples 5 days after infestation. Control of Euschistus heros by a test sample is given when the growth inhibition is higher than the untreated sample.

[4] = system: Euschistus heros (Neotropical Brown Stink Bug); assay: Example B5: Euschistus heros, sprayed soybean leaves, mortality; settings: 120 h, application rate of 200 ppm, N2 nymphs, 5 days after infestation
Experimental: Soybean leaves on agar in 24-well microtiter plates were sprayed with aqueous test solutions prepared from 10,000 ppm DMSO stock solutions. After drying the leaves were infested with N2 nymphs. The samples were assessed for mortality 5 days after infestation.

[5] = system: Euschistus heros (Neotropical Brown Stink Bug); assay: Example B6: Euschistus heros, sprayed soybean leaves, mortality and growth inhibition; settings: 120 h, application rate of 200 ppm, N2 nymphs, 5 days after infestation, read-out: effect in at least one of the two categories (mortality or growth inhibition)
Experimental: Soybean leaves on agar in 24-well microtiter plates were sprayed with aqueous test solutions prepared from 10,000 ppm DMSO stock solutions. After drying the leaves were infested with N2 nymphs. The samples were assessed for mortality and growth inhibition in comparison to untreated samples 5 days after infestation.

[6] = system: Frankliniella occidentalis (Western Flower Thrips); assay: Example B7: Frankliniella occidentalis, sprayed sunflower leaf discs, mortality; settings: foliar, 168 h, application rate of 200 ppm, population of mixed ages, 7 days after infestation
Experimental: Sunflower leaf discs were placed on agar in 24-well microtiter plates and sprayed with aqueous test solutions prepared from 10,000 DMSO stock solutions. After drying the leaf discs were infested with a Frankliniella population of mixed ages. The samples were assessed for mortality 7 days after infestation.

[7] = system: Plutella xylostella (Diamond Back Moth); assay: Example B12: Plutella xylostella, treated artificial diet, mortality; settings: 120 h, application rate of 200 ppm, L2 larvae, 5 days after infestation
Experimental: 24-well microtiter plates with artificial diet were treated with aqueous test solutions prepared from 10,000 ppm DMSO stock solutions by pipetting. After drying, the plates were infested with L2 larvae (10 to 15 per well). The samples were assessed for mortality 5 days after infestation.

[8] = system: Plutella xylostella (Diamond Back Moth); assay: Example B13: Plutella xylostella, treated artificial diet, mortality and growth inhibition; settings: 120 h, application rate of 200 ppm, L2 larvae, 5 days after infestation, read-out: effect in at least one of the two categories (mortality or growth inhibition)
Experimental: 24-well microtiter plates with artificial diet were treated with aqueous test solutions prepared from 10,000 ppm DMSO stock solutions by pipetting. After drying, the plates were infested with L2 larvae (10 to 15 per well). The samples were assessed for mortality and growth inhibition in comparison to untreated samples 5 days after infestation.

[9] = system: Spodoptera littoralis (Egyptian Cotton Leaf Worm); assay: Example B14: Spodoptera littoralis, sprayed cotton leaf discs, anti-feeding effect; settings: foliar, 72 h, application rate of 200 ppm, L1 larvae, 3 days after infestation
Experimental: Cotton leaf discs were placed onto agar in 24-well microtiter plates and sprayed with aqueous test solutions prepared from 10,000 ppm DMSO stock solutions. After drying the leaf discs were infested with five L1 larvae. The samples were assessed for anti-feeding effect in comparison to untreated samples 3 days after infestation. Control of Spodoptera littoralis by a test sample is given when the anti-feedant effect is higher than the untreated sample.

[10] = system: Spodoptera littoralis (Egyptian Cotton Leaf Worm); assay: Example B16: Spodoptera littoralis, sprayed cotton leaf discs, mortality; settings: foliar, 72 h, application rate of 200 ppm, L1 larvae, 3 days after infestation
Experimental: Cotton leaf discs were placed onto agar in 24-well microtiter plates and sprayed with aqueous test solutions prepared from 10,000 ppm DMSO stock solutions. After drying the leaf discs were infested with five L1 larvae. The samples were assessed for mortality 3 days after infestation.

[11] = system: Spodoptera littoralis (Egyptian Cotton Leaf Worm); assay: Example B17: Spodoptera littoralis, sprayed cotton leaf discs, mortality, anti-feeding effect and growth inhibition; settings: foliar, 72 h, application rate of 200 ppm, L1 larvae, 3 days after infestation, read-out: control (at least one of mortality, anti-feedant effect, growth inhibition)
Experimental: Cotton leaf discs were placed onto agar in 24-well microtiter plates and sprayed with aqueous test solutions prepared from 10,000 ppm DMSO stock solutions. After drying the leaf discs were infested with five L1 larvae. The samples were assessed for mortality, anti-feeding effect, and growth inhibition in comparison to untreated samples 3 days after infestation. Control of Spodoptera littoralis by a test sample is given when at least one of the categories mortality, anti-feedant effect, and growth inhibition is higher than the untreated sample.

[12] = system: Spodoptera littoralis (Egyptian Cotton Leaf Worm); assay: Example B18: Spodoptera littoralis, compound in agar absorbed by lettuce roots, mortality, anti-feedant effect and growth inhibition; settings: 144 h, test rate of 12.5 ppm, uptake by lettuce roots, Spodoptera eggs, 6 days after infestation, read-out: effect in at least one of the three categories (mortality, anti-feeding, or growth inhibition)
Source text: Test compounds were applied by pipette from 10,000 ppm DMSO stock solutions into 24-well plates and mixed with agar. Lettuce seeds were placed onto the agar and the multi well plate was closed by another plate which contained also agar. After 7 days the compound was absorbed by the roots and the lettuce grew into the lid plate. The lettuce leaves were then cut off into the lid plate. Spodoptera eggs were pipetted through a plastic stencil onto a humid gel blotting paper and the lid plate was closed with it. The samples were assessed for mortality, anti-feedant effect and growth inhibition in comparison to untreated samples 6 days after infestation.

[13] = system: Spodoptera littoralis (Egyptian Cotton Leaf Worm); assay: Example B19: Spodoptera littoralis, compound in agar absorbed by lettuce roots, anti-feedant effect; settings: 144 h, test rate of 12.5 ppm, uptake by lettuce roots, Spodoptera eggs, 6 days after infestation, read-out: anti-feeding
Source text: Test compounds were applied by pipette prepared from 10,000 ppm DMSO stock solutions into 24-well plates and mixed with agar. Lettuce seeds were placed onto the agar and the multi well plate was closed by another plate which contained also agar. After 7 days the compound was absorbed by the roots and the lettuce grew into the lid plate. The lettuce leaves were then cut off into the lid plate. Spodoptera eggs were pipetted through a plastic stencil onto a humid gel blotting paper and the lid plate was closed with it. The samples were assessed for anti-feedant effect in comparison to untreated samples 6 days after infestation.

[14] = system: Spodoptera littoralis (Egyptian Cotton Leaf Worm); assay: Example B20: Spodoptera littoralis, compound in agar absorbed by lettuce roots, mortality; settings: 144 h, test rate of 12.5 ppm, uptake by lettuce roots, Spodoptera eggs, 6 days after infestation
Source text: Test compounds were applied by pipette prepared from 10,000 ppm DMSO stock solutions into 24-well plates and mixed with agar. Lettuce seeds were placed onto the agar and the multi well plate was closed by another plate which contained also agar. After 7 days the compound was absorbed by the roots and the lettuce grew into the lid plate. The lettuce leaves were then cut off into the lid plate.
Spodoptera eggs were pipetted through a plastic stencil onto a humid gel blotting paper and the lid plate was closed with it. The samples were assessed for mortality 6 days after infestation.

[15] = system: Myzus persicae (Green Peach Aphid); assay: Example B8: Myzus persicae, sprayed sunflower leaf discs, mortality; settings: foliar, 144 h, application rate of 200 ppm, leaf disc spray, aphid population of mixed ages, 6 days after infestation
Experimental: Sunflower leaf discs were placed onto agar in a 24-well microtiter plate and sprayed with aqueous test solutions prepared from 10,000 ppm DMSO stock solutions. After drying, the leaf discs were infested with an aphid population of mixed ages. The samples were assessed for mortality 6 days after infestation.

[16] = system: Plutella xylostella (Diamond Back Moth); assay: Example B10: Plutella xylostella, treated artificial diet, growth inhibition; settings: 120 h, application rate of 200 ppm, L2 larvae, 5 days after infestation
Experimental: 24-well microtiter plates with artificial diet were treated with aqueous test solutions prepared from 10,000 ppm DMSO stock solutions by pipetting. After drying, the plates were infested with L2 larvae (10 to 15 per well). The samples were assessed for growth inhibition in comparison to untreated samples 5 days after infestation. Control of Plutella xylostella by a test sample is given when the growth inhibition is higher than the untreated sample.

[17] = system: Spodoptera littoralis (Egyptian Cotton Leaf Worm); assay: Example B15: Spodoptera littoralis, sprayed cotton leaf discs, growth inhibition; settings: foliar, 72 h, application rate of 200 ppm, L1 larvae, 3 days after infestation, read-out: control (growth inhibition)
Experimental: Cotton leaf discs were placed onto agar in 24-well microtiter plates and sprayed with aqueous test solutions prepared from 10,000 ppm DMSO stock solutions. After drying the leaf discs were infested with five L1 larvae. The samples were assessed for growth inhibition in comparison to untreated samples 3 days after infestation. Control of Spodoptera littoralis by a test sample is given when the growth inhibition is higher than the untreated sample.

[18] = system: Bemisia tabaci (Cotton White Fly); assay: Example B1: Bemisia tabaci, sprayed cotton leaf discs, mortality; settings: foliar, 144 h, application rate of 200 ppm, adult white flies, 6 days after incubation
Experimental: Cotton leaf discs were placed on agar in 24-well microtiter plates and sprayed with aqueous test solutions prepared from 10,000 ppm DMSO stock solutions. After drying the leaf discs were infested with adult white flies. The samples were checked for mortality 6 days after incubation.

[19] = system: Aedes aegypti (Yellow Fever Mosquito); assay: Example B23: Aedes aegypti, dry deposits in 12 well tissue culture plates, control; settings: application rate of 200 ppm in ethanol, adult females, after 48 h and/or 24 h
Experimental: Test solutions, at an application rate of 200 ppm in ethanol, were applied to 12 well tissue culture plates. Once the deposits were dry, five, two to five day old adult female Aedes aegypti were added to each well, and sustained with a 10% sucrose solution in a cotton wool plug. Assessment of knockdown was made one hour after introduction, and mortality was assessed at 24 and 48 hours after introduction.

CCS(=O)(=O)c1cc(-c2ccc(Cl)cc2)cnc1-c1cn2cnc(C(F)(F)F)cc2n1 [Compound P5, 2-[5-(4-chlorophenyl)-3-ethylsulfonyl-2-pyridyl]-7-(trifluoromethyl)imidazo [1,2-c]pyrimidine]
≥ 80%: percent effect (mortality or growth inhibition) at 200 ppm [1] | mortality at 200 ppm [2] | inhibition at 200 ppm [3] | mortality at 200 ppm [4] | percent effect (mortality or growth inhibition) at 200 ppm [5] | mortality at 200 ppm [6] | mortality at 200 ppm [7] | percent effect (mortality or growth inhibition) at 200 ppm [8] | pest or weed control at 200 ppm [9] | mortality at 200 ppm [10] | percent control (mortality, anti-feedant effect or growth inhibition) at 200 ppm [11] | percent effect (mortality, anti-feeding or growth inhibition) at 12.5 ppm [12] | pest or weed control at 12.5 ppm [13] | mortality at 12.5 ppm [14]

CCS(=O)(=O)c1cc(C2(C#N)CC2)cnc1-c1cn2cnc(C(F)(F)F)cc2n1 [Compound P8, 1-[5-ethylsulfonyl-6-[7-(trifluoromethyl)imidazo[1,2-c]pyrimidin-2-yl]-3-pyridyl]cyclopropanecarbonitrile]
≥ 80%: percent effect (mortality or growth inhibition) at 200 ppm [1] | mortality at 200 ppm [2] | inhibition at 200 ppm [3] | mortality at 200 ppm [4] | percent effect (mortality or growth inhibition) at 200 ppm [5] | mortality at 200 ppm [15] | inhibition at 200 ppm [16] | mortality at 200 ppm [7] | percent effect (mortality or growth inhibition) at 200 ppm [8] | pest or weed control at 200 ppm [9] | inhibition at 200 ppm [17] | mortality at 200 ppm [10] | percent control (mortality, anti-feedant effect or growth inhibition) at 200 ppm [11]

CCS(=O)(=O)c1cc(-c2ccc(C#N)cc2)cnc1-c1cn2cnc(C(F)(F)F)cc2n1 [Compound P10]
≥ 80%: mortality at 200 ppm [18] | percent effect (mortality or growth inhibition) at 200 ppm [1] | mortality at 200 ppm [2] | mortality at 200 ppm [6] | mortality at 200 ppm [7] | percent effect (mortality or growth inhibition) at 200 ppm [8] | pest or weed control at 200 ppm [9] | inhibition at 200 ppm [17] | mortality at 200 ppm [10] | percent control (mortality, anti-feedant effect or growth inhibition) at 200 ppm [11]

CCS(=O)(=O)c1cc(C2CC2)cnc1-c1cn2cnc(C(F)(F)F)cc2n1 [Compound P16, 2-(5-cyclopropyl-3-ethylsulfonyl-2-pyridyl)-7-(trifluoromethyl)imidazo [1,2-c]pyrimidine]
≥ 80%: percent effect (mortality or growth inhibition) at 200 ppm [1] | mortality at 200 ppm [2] | mortality at 200 ppm [4] | percent effect (mortality or growth inhibition) at 200 ppm [5] | mortality at 200 ppm [6] | mortality at 200 ppm [15] | inhibition at 200 ppm [16] | mortality at 200 ppm [7] | percent effect (mortality or growth inhibition) at 200 ppm [8] | pest or weed control at 200 ppm [9] | inhibition at 200 ppm [17] | mortality at 200 ppm [10] | percent control (mortality, anti-feedant effect or growth inhibition) at 200 ppm [11] | pest or weed control at 200 ppm [19]
